# Test results taken from the PolyMetriX glass transition set.
# ± gives the standard deviation of the reports.
row,Structure (SMILES),glass transition temperature
1,*c1ccc2c(c1)C(=O)N(c1ccc3c(c1)Cc1cc(N4C(=O)c5ccc(C(*)(C(F)(F)F)C(F)(F)F)cc5C4=O)ccc1-3)C2=O (repeat unit),394.00 °C
2,*CCCCCCN1C(=O)C(=O)N(c2ccc(Cc3ccc(N4C(=O)C(=O)N(*)C4=O)cc3)cc2)C1=O (repeat unit),158.00 °C
3,*c1ccc(-c2nc(-c3cccc(-c4nnc(-c5ccccc5)c(*)n4)n3)nnc2-c2ccccc2)cc1 (repeat unit),260.00 °C
4,*CCCCCCOC(=O)CCCCCCCCCCCCCCCCCCC(=O)OCCCCCCN1C(=O)c2ccc(S(=O)(=O)c3ccc4c(c3)C(=O)N(*)C4=O)cc2C1=O (repeat unit),19.00 °C
5,*CC(*)C(=O)OCCCCCCOc1ccc(C(=O)Oc2ccc(C#N)cc2)cc1 (repeat unit),19.50 °C
6,*NC(CCC(=O)OCCCCCC)C(*)=O (repeat unit),-25.00 °C
7,*C(=O)Nc1ccc(Oc2ccc(NC(=O)c3ccc4c(c3)C(=O)N(c3ccc(Oc5ccc(C6(c7ccc(Oc8ccc(N9C(=O)c%10ccc(*)cc%10C9=O)cc8)cc7)CC7CC6C6CCCC76)cc5)cc3)C4=O)cc2)cc1 (repeat unit),250.00 °C
8,*c1nc(C(F)(F)C(F)(F)C(F)(F)F)nc(C(F)(F)C(F)(F)C(F)(F)C(F)(F)C(F)(F)C(*)(F)F)n1 (repeat unit),-5.00 °C
9,*c1cc(CCCCCC)c(-c2ccc3c4ccc(-c5sc(-c6sc(*)c7nc(CC)c(CC)nc67)cc5CCCCCC)cc4n(CCCCCCCCCCCC)c3c2)s1 (repeat unit),89.00 °C
10,*CCN(Cc1ccccc1)C(=O)S* (repeat unit),32.00 °C
11,*N=P(N=P(/N=S(/*)Oc1ccc(C(C)(C)C)cc1)(Oc1ccc(-c2ccccc2)cc1)Oc1ccc(-c2ccccc2)cc1)(Oc1ccc(-c2ccccc2)cc1)Oc1ccc(-c2ccccc2)cc1 (repeat unit),54.00 °C
12,*Oc1ccc(Oc2ccc(C(=O)c3ccc(*)cc3)cc2)cc1C (repeat unit),151.00 °C
13,*C(=O)NC1CCCC(*)O1 (repeat unit),145.00 °C
14,*CCN(*)C(=O)CCCCCC (repeat unit),10.00 °C
15,*CCCCCCOc1ccc(C(=O)N(C(=O)c2ccc(O*)cc2)c2ccc(Oc3ccccc3)cc2)cc1 (repeat unit),78.00 °C
16,*Oc1cccc(Oc2ccc(C(=O)c3ccc(*)cc3)cc2)c1 (repeat unit),125.00 °C
17,*CCC(=O)Nc1ccc(Oc2ccc(Oc3ccc(NC(=O)CCN4C(=O)c5ccc(C(=O)c6ccc7c(c6)C(=O)N(*)C7=O)cc5C4=O)cc3)cc2)cc1 (repeat unit),221.00 °C
18,*CCO* (repeat unit) [Poly(ethylene glycol)],-15.6 ± 42 °C
19,*c1ccc(C(=O)OCCCCCCOc2ccc(/C=C3\CCC/C(=C\c4ccc(OCCCCCCOC(=O)c5ccc(-c6nnc(*)o6)cc5)cc4)C3=O)cc2)cc1 (repeat unit),71.00 °C
20,*c1ccc(-c2ccc(-c3ccc(-c4ccc(N(*)c5ccc(C)cc5)cc4)c4c(C)ccc(C)c34)c3c(C)ccc(C)c23)cc1 (repeat unit),148.00 °C
21,*CCC[Si](*)(C)c1ccc(N(C)C)cc1 (repeat unit),6.50 °C
22,*c1ccc([Si](c2ccccc2)(c2ccccc2)c2ccc(-c3nnc(-c4cccc(-c5nnc(*)o5)n4)o3)cc2)cc1 (repeat unit),265.00 °C
23,*Oc1ccc(NC(=O)c2cc(C(=O)Nc3ccc(Oc4ccc(C(C)(C)c5ccc(*)cc5)cc4)cc3)cc(C(C)(C)C)c2)cc1 (repeat unit),244.00 °C
24,*Oc1ccc(CC(NC(=O)CCc2ccc(OC(=O)COCCOCC(*)=O)cc2)C(=O)OCCCCCCCCCCCC)cc1 (repeat unit),17.00 °C

row,Structure (SMILES),glass transition temperature
1,*CCCOC(=O)C1CCC(C(=O)O*)CC1 (repeat unit),-6.00 °C
2,*CC(*)(C)C(=O)OC(COc1ccc(-c2ccccc2)cc1)COc1ccc(-c2ccccc2)cc1 (repeat unit),85.00 °C
3,*Oc1ccc(C(C)(c2ccccc2)c2ccc(OC(=O)c3ccccc3-c3ccccc3C(*)=O)cc2)cc1 (repeat unit),172.00 °C
4,*CCOC(=O)NCCCCCCNC(=O)OCCOc1ccc(C2(c3ccc(O*)cc3)c3ccccc3-c3ccccc32)cc1 (repeat unit),61.00 °C
5,*CC(*)C(=O)c1ccc(C)cc1 (repeat unit),59.50 °C
6,*CCOC(=O)c1ccc(C2(C)CC(C)(C)c3ccc(C(=O)O*)cc32)cc1 (repeat unit),154.00 °C
7,*CC(*)(C)C(=O)OCC(=O)N1CCOCC1 (repeat unit),128.00 °C
8,*c1ccc(-c2ccc3c(c2)C(CCCCCCCC)(CCCCCCCC)c2cc(*)ccc2-3)cc1 (repeat unit),81.00 °C
9,*Oc1ccc(S(=O)(=O)c2ccc(Oc3ccc(NC(=O)c4ccc(Oc5ccc(C(C)(C)c6ccc(C(C)(C)c7ccc(Oc8ccc(C(=O)Nc9ccc(*)cc9)cc8)cc7)cc6)cc5)cc4)cc3)cc2)cc1 (repeat unit),177.00 °C
10,*Oc1cccc2ccc(Oc3ccc(NC(=O)c4cc(C(=O)Nc5ccc(*)cc5)cc(C(C)(C)C)c4)cc3)cc12 (repeat unit),263.00 °C
11,*C(=O)NNC(=O)c1ccc([Si](c2ccccc2)(c2ccccc2)c2ccc(C(=O)NNC(=O)c3cncc(*)c3)cc2)cc1 (repeat unit),234.00 °C
12,*CC(O)CN(C)S(=O)(=O)c1cccc(S(=O)(=O)N(C)CC(O)COc2ccc(C3(c4ccc(O*)cc4)c4ccccc4-c4ccccc43)cc2)c1 (repeat unit),127.00 °C
13,*CCCCCCCOc1ccc(CCc2ccc(O*)cc2C)cc1 (repeat unit),6.50 °C
14,*Oc1cc(C)cc(OC(=O)c2cccc(C(*)=O)c2)c1 (repeat unit),163.00 °C
15,*Oc1ccc(C(C)(C)c2ccc(OC(=O)OCCN(CCOC(*)=O)c3ccccc3)cc2)cc1 (repeat unit),70.00 °C
16,*CCCCCCOC(=O)CCCCCCCCC(=O)O* (repeat unit),-38.00 °C
17,*c1ccc(-c2nc3cc(Oc4ccc5nc(-c6ccccc6)c(*)nc5c4)ccc3nc2-c2ccccc2)cc1 (repeat unit),304.00 °C
18,*CCCCCCCCOc1ccc(/C=C/c2cc(OCCCCCCCC)c(/C=C/c3ccc(O*)cc3)cc2OCCCCCCCC)cc1 (repeat unit),130.00 °C
19,*CCCCCCCCCOc1ccc(CCc2ccc(O*)cc2C)cc1 (repeat unit),-1.10 °C
20,*CCCCCCCCC(Cl)C(*)Cl (repeat unit),-30.00 °C
21,*c1ccc(NC2CC(=O)N(c3ccc(Cc4ccc(N5C(=O)CC(Nc6ccc(-c7nc(-c8ccc(/N=N/c9ccc([N+](=O)[O-])cc9)cc8)[nH]c7*)cc6)C5=O)cc4)cc3)C2=O)cc1 (repeat unit),258.00 °C
22,*/C=C/c1cc(OCC(CC)CCCC)c(/C=C/c2cc(OC)c(*)cc2OC)cc1OC (repeat unit),110.00 °C
23,*O[Si](*)(C)CCCCCCOc1ccc(C(=O)Oc2ccc(OCCCCCC)cc2)cc1 (repeat unit),12.00 °C
